According to US8334291B2, “Aliphatically substituted pyrazolopyridines, and the use thereof” (Bayer Intellectual Property GmbH, priority 2008, dated 2012):

System: rabbit aorta rings contracted with phenylephrine
Experiment: Vasorelaxant effect in vitro
Set-up: species or system Rabbits
Conditions: Oryctolagus cuniculus; concentration reducing height of phenylephrine-induced contraction of rabbit aorta rings by 50%; 0.1% DMSO
Experimental: Rabbits are stunned by a blow to the neck and exsanguinated. The aorta is removed, freed from adhering tissue and divided into rings of a width of 1.5 mm. The rings are placed individually under an initial tension in 5 ml organ baths with Krebs-Henseleit solution which is at 37° C., is gassed with carbogen and has the following composition (in each case mM): NaCl: 119; KCl: 4.8; CaCl2×2H2O: 1; MgSO4×7H2O: 1.4; KH2PO4: 1.2; NaHCO3: 25; glucose: 10. The force of contraction is detected with Statham UC2 cells, amplified and digitized via A/D converters (DAS-1802 HC, Keithley Instruments, Munich) and recorded in parallel on chart recorders. Contractions are induced by cumulatively adding increasing concentrations of phenylephrine to the bath. After several control cycles, the substance to be investigated is added in each further run in increasing dosage in each case, and the height of the contraction achieved is compared with the height of the contraction reached in the last preceding one. The concentration necessary to reduce the height of the control value by 50% is calculated from this (IC50 value). The standard application volume is 5 μl, the proportion of DMSO in the bath solution corresponds to 0.1%.

Row | IC50 [nM] | SMILES
1 | 870 | COC(=O)Nc1c(N)nc(-c2nn(CC3CCCCC3)c3ncccc23)nc1N [Example 1, Methyl[4,6-diamino-2-(1-cyclohexylmethyl-1H-pyrazolo[3,4-b]pyridin-3-yl)pyrimidin-5-yl]carbamate]
2 | 1000 | Nc1nc(-c2nn(CC3CCCCCC3)c3ncccc23)ncc1-c1ccncc1 [Example 5, 2-[1-(Cycloheptylmethyl)-1H-pyrazolo[3,4-b]pyridin-3-yl]-5-(pyridin-4-yl)pyrimidine-4-amine]
